Data from patent publication US20110217265A1, “Screening for Inhibitors of HCV Amphipathic Helix (AH) Function” (priority 2008, published 2011).
pIC50: −log10 of the molar value.

Experiments:
2a HCV RNA replicon = 2a HCV RNA replicon assay (FL-J6/JFH-5'C19Rluc2AUbi, luciferase); type: cell-based, Hepatitis C Virus genotype 2a; settings: Hepatitis C virus, read-out: 2a (%) Percent of virus activity remaining in the presence of the compound
From the text: Plasmids. Bart79I, a high-efficiency subgenomic replicon of HCV (28), harbors the neomycin resistance gene (neo) and the HCV nonstructural proteins. The Bart-Luciferase plasmid, Bart79I-luc, was cloned from the Bart791 parent (29) and the pGL3-Basic parent (Promega). In brief, a NotI site was introduced after the 15th amino acid of Core in Bart791 using PCR mutagenesis. The plasmid pcDNA3.1-NS4B, which encodes the Con1 NS4B sequence and was used to study the protein stability of the wild type and mutant NS4Bs, was described previously. To introduce the M2 mutation into the 4BAH2 of plasmids encoding HCV replicons or NS4B, the nucleotide sequence GCG that encodes for alanine at NS4B amino acid position 51 was changed to GAG (encoding for glutamate) and the nucleotide sequence TGG that encodes for tryptophan at amino acid position 55 was changed to GAT (encoding for aspartate) through the use of Quick-ChangeTMXL site-directed mutagenesis kit (Stratagene, La Jolla, Calif.) as described by the manufacturer and confirmed by sequencing. FL-J6/JFH-5′C19Rluc2AUbi, which is a monocistronic, full-length HCV genome that expresses Renilla luciferase (Rluc) and was derived from the previously described infectious genotype 2a HCV genome J6/JFH1.
(§1) Antiviral Assays of Compounds. Subconfluent Huh7.5 cells were trypsinized and collected by centrifugation at 700 g for 5 min. The cells were then washed three times in ice-cold RNasefree PBS buffer (BioWhittaker) and resuspended at 1.5×10^7 cells·ml^−1 in PBS buffer. Wild-type FL-J6/JFH-5′C19Rluc2AUbi and Bart79I-luc RNAs for electroporation were generated by in vitro transcription of XbaI (FL-J6/JFH-5′C19Rluc2AUbi) and ScaI (Bart791-luc)-linearized DNA templates using the T7 MEGAscript kit (Ambion), followed by phenol-chloroform purification and DEPC water suspension, 5 μg of RNA were mixed with 400 μl of washed Huh7.5 cells in a 2-mm-gap cuvette (BTX) and immediately pulsed (0.82 kV (FL-J6/JFH-5′C19Rluc2AUbi) and 0.68 kV (Bart79I-luc), five […] pulses) with a BTX-830 electroporator. After 10 min recovery at 25° C., pulsed cells were diluted into 20 ml of pre-warmed growth medium. Cells from several electroporations were pooled to a common stock and seeded in 96-well plates (17,000-20,000 cells per well). After 24 hr, compounds were added to the cells and media changes were performed daily with fresh compounds. After 72 hr of treatment, cells were incubated for 2 hr at 37° C. in the presence of 10% Alamar Blue reagent (TREK Diagnostic Systems) to assess for cytotoxicity. Plates were then scanned and fluorescence was detected by using a FLEXstation II 384 (Molecular Devices). The signal was normalized relative to untreated samples. Viral RNA replication was determined using Renilla (FL-J6/JFH-5′C19Rluc2AUbi) or firefly (Bart791-luc) luciferase assays, according to the manufacturer's (Promega) directions. The same samples subjected to the viability assay described below were analyzed in this assay. According to the manufacturer protocol, cells were washed with PBS buffer and shaken at room temperature for 15 min in 20 μl of lysis buffer. Reporter assays were performed directly in the wells of the culture plates by injecting 100 μl of the assay substrate into each well. Luminescence was measured over 10 seconds with a 2-second delay using a Berthold LB 96 V luminometer. Signal was normalized relative to untreated samples or samples grown in the presence of the corresponding concentration of DMSO. Experiments were repeated three times, each time with 4 replicates.

Huh7.5 cells = assay: Alamar Blue cell viability assay; type: cell-based, human
Description: as §1, with “Plates were then scanned and fluorescence was detected by using a FLEXstation II 384 (Molecular Devices).” left out

HCV 1b RNA replicon = assay: 1b HCV RNA replicon assay, Huh7 cell line with stable luciferase reporter; type: cell-based, Hepatitis C Virus genotype 1b; settings: Huh7, stable LUC reporter; for pIC50: Hepatitis C virus, Huh-7

Question: For `CC(C)CN(C)c1nc(N)c(C(=O)NCc2ccncc2)nc1Cl.O=C(O)C(F)(F)F` [ID 342, 3-amino-6-chloro-5-(isobutyl(methyl)amino)-N-(pyridin-4-ylmethyl)pyrazine-2-carboxamide 2,2,2-trifluoroacetate], which activity at 5 µM (2a HCV RNA replicon) is on record?
Answer: 22%

Question: And the activity at 10 µM (2a HCV RNA replicon)?
Answer: 12%

Question: What about the “Cell Viability (%), alamar blue” value (Huh7.5 cells; 5 μM) of the same molecule?
Answer: 69%

Question: And the “Cell Viability (%), alamar blue” value (Huh7.5 cells; 10 μM)?
Answer: 56%

Question: And the “1b assay IC50” value (HCV 1b RNA replicon)?
Answer: inactive

Question: Which results are given for `Cc1cc(Cl)ncc1NC(=O)c1nc(Cl)c(N(C)CC(C)C)nc1N` [ID 293, 3-amino-6-chloro-N-(6-chloro-4-methylpyridin-3-yl)-5-(isobutyl(methyl)amino)pyrazine-2-carboxamide bis(2,2,2-trifluoroacetate)]?
Answer: activity at 5 µM (2a HCV RNA replicon): 34%; activity at 10 µM (2a HCV RNA replicon): 28%; Cell Viability (%), alamar blue (Huh7.5 cells; 5 μM): 71%; Cell Viability (%), alamar blue (Huh7.5 cells; 10 μM): 66%; 1b assay IC50 (HCV 1b RNA replicon): inactive

Question: With `CC(C)CN(C)c1nc(N)c(C(=O)NCC2CCCCC2)nc1Cl.O=C(O)C(F)(F)F` [ID 320, 3-amino-6-chloro-N-(cyclohexylmethyl)-5-(isobutyl(methyl)amino)pyrazine-2-carboxamide 2,2,2-trifluoroacetate] as the molecule, how does the activity at 5 µM (2a HCV RNA replicon) read?
Answer: 37%

Question: What about the activity at 10 µM (2a HCV RNA replicon) of the same molecule?
Answer: 17%

Question: What about the “Cell Viability (%), alamar blue” value (Huh7.5 cells; 5 μM) of the same molecule?
Answer: 80%

Question: And the “Cell Viability (%), alamar blue” value (Huh7.5 cells; 10 μM)?
Answer: 59%

Question: And the “1b assay IC50” value (HCV 1b RNA replicon)?
Answer: inactive

Question: `CC(C)CN(C)c1nc(N)c(C(=O)NC2CCCCC2)nc1Cl.O=C(O)C(F)(F)F` [ID 313, 3-amino-6-chloro-N-cyclohexyl-5-(isobutyl(methyl)amino)pyrazine-2-carboxamide 2,2,2-trifluoroacetate] was tested. Which activity at 5 µM (2a HCV RNA replicon) did it give?
Answer: 33%

Question: And the activity at 10 µM (2a HCV RNA replicon)?
Answer: 12%

Question: What about the “Cell Viability (%), alamar blue” value (Huh7.5 cells; 5 μM) of the same molecule?
Answer: 68%

Question: And the “Cell Viability (%), alamar blue” value (Huh7.5 cells; 10 μM)?
Answer: 48%

Question: What about the pIC50 (HCV 1b RNA replicon) of the same molecule?
Answer: < 4.60

Question: With `Cc1ccncc1NC(=O)c1nc(Cl)c(N2CCCCC2)nc1N` [ID 415, 3-amino-6-chloro-N-(4-methylpyridin-3-yl)-5-(piperidin-1-yl)pyrazine-2-carboxamide 2,2,2-trifluoroacetate] as the molecule, how does the activity at 5 µM (2a HCV RNA replicon) read?
Answer: 27%

Question: And the activity at 10 µM (2a HCV RNA replicon)?
Answer: 10%

Question: What about the “Cell Viability (%), alamar blue” value (Huh7.5 cells; 5 μM) of the same molecule?
Answer: 71%

Question: And the “Cell Viability (%), alamar blue” value (Huh7.5 cells; 10 μM)?
Answer: 65%

Question: What about the “1b assay IC50” value (HCV 1b RNA replicon) of the same molecule?
Answer: inactive

Question: Which activity at 5 µM (2a HCV RNA replicon) does the source give for `CC(C)CN(C)c1nc(N)c(C(=O)NCc2ccccc2)nc1Cl` [ID 292, 3-amino-N-benzyl-6-chloro-5-(isobutyl(methyl)amino)pyrazine-2-carboxamide 2,2,2-trifluoroacetate] here?
Answer: 39%

Question: What about the activity at 10 µM (2a HCV RNA replicon) of the same molecule?
Answer: 25%

Question: What about the “Cell Viability (%), alamar blue” value (Huh7.5 cells; 5 μM) of the same molecule?
Answer: 80%

Question: What about the “Cell Viability (%), alamar blue” value (Huh7.5 cells; 10 μM) of the same molecule?
Answer: 62%

Question: And the “1b assay IC50” value (HCV 1b RNA replicon)?
Answer: inactive

Question: Which results are given for `CC(C)CN(C)c1nc(N)c(C(=O)NCc2cccnc2)nc1Cl.O=C(O)C(F)(F)F` [ID 341, 3-amino-6-chloro-5-(isobutyl(methyl)amino)-N-(pyridin-3-ylmethyl)pyrazine-2-carboxamide 2,2,2-trifluoroacetate]?
Answer: activity at 5 µM (2a HCV RNA replicon): 30%; activity at 10 µM (2a HCV RNA replicon): 15%; Cell Viability (%), alamar blue (Huh7.5 cells; 5 μM): 77%; Cell Viability (%), alamar blue (Huh7.5 cells; 10 μM): 65%; 1b assay IC50 (HCV 1b RNA replicon): inactive

Question: Which results are given for `Cc1ccncc1NC(=O)c1nc(Cl)c(N2CCOCC2)nc1N` [ID 419, 3-amino-6-chloro-N-(4-methylpyridin-3-yl)-5-morpholinopyrazine-2-carboxamide 2,2,2-trifluoroacetate]?
Answer: activity at 5 µM (2a HCV RNA replicon): 75%; activity at 10 µM (2a HCV RNA replicon): 51%; Cell Viability (%), alamar blue (Huh7.5 cells; 5 μM): 95%; Cell Viability (%), alamar blue (Huh7.5 cells; 10 μM): 77%

Question: Which results are given for `Cc1cc(NC(=O)c2nc(Cl)c(N(C)CC(C)C)nc2N)no1.Cl` [ID 236, 3-amino-6-chloro-5-(isobutyl(methyl)amino)-N-(5-methylisoxazol-3-yl)pyrazine-2-carboxamide hydrochloride]?
Answer: activity at 5 µM (2a HCV RNA replicon): 92%; activity at 10 µM (2a HCV RNA replicon): 51%; Cell Viability (%), alamar blue (Huh7.5 cells; 5 μM): 96%; Cell Viability (%), alamar blue (Huh7.5 cells; 10 μM): 78%

Question: How did the activity at 5 µM (2a HCV RNA replicon) turn out when `COc1cc(C)c(NC(=O)c2nc(Cl)c(N(C)CC(C)C)nc2N)cn1` [ID 294, 3-amino-6-chloro-5-(isobutyl(methyl)amino)-N-(6-methoxy-4-methylpyridin-3-yl)pyrazine-2-carboxamide bis(2,2,2-trifluoroacetate)] was run?
Answer: 58%

Question: And the activity at 10 µM (2a HCV RNA replicon)?
Answer: 22%

Question: And the “Cell Viability (%), alamar blue” value (Huh7.5 cells; 5 μM)?
Answer: 100%

Question: What about the “Cell Viability (%), alamar blue” value (Huh7.5 cells; 10 μM) of the same molecule?
Answer: 68%

Question: For `Cc1ccncc1NC(=O)c1nc(Cl)c(N(C)Cc2ccccc2)nc1N` [ID 424, 3-amino-5-(benzyl(methyl)amino)-6-chloro-N-(4-methylpyridin-3-yl)pyrazine-2-carboxamide 2,2,2-trifluoroacetate], which activity at 5 µM (2a HCV RNA replicon) is on record?
Answer: 70%

Question: What about the activity at 10 µM (2a HCV RNA replicon) of the same molecule?
Answer: 39%

Question: What about the “Cell Viability (%), alamar blue” value (Huh7.5 cells; 5 μM) of the same molecule?
Answer: 98%

Question: And the “Cell Viability (%), alamar blue” value (Huh7.5 cells; 10 μM)?
Answer: 78%

Question: `Cc1ccncc1NC(=O)c1nc(Cl)c(N2CCCC2)nc1N` [ID 420, 3-amino-6-chloro-N-(4-methylpyridin-3-yl)-5-(pyrrolidin-1-yl)pyrazine-2-carboxamide 2,2,2-trifluoroacetate] was tested. Which activity at 5 µM (2a HCV RNA replicon) did it give?
Answer: 52%

Question: And the activity at 10 µM (2a HCV RNA replicon)?
Answer: 49%

Question: And the “Cell Viability (%), alamar blue” value (Huh7.5 cells; 5 μM)?
Answer: 73%

Question: What about the “Cell Viability (%), alamar blue” value (Huh7.5 cells; 10 μM) of the same molecule?
Answer: 72%

Question: Which results are given for `Cc1cc(F)ncc1NC(=O)c1nc(Cl)c(N(C)CC(C)C)nc1N` [ID 297, 3-amino-6-chloro-N-(6-fluoro-4-methylpyridin-3-yl)-5-(isobutyl(methyl)amino)pyrazine-2-carboxamide bis(2,2,2-trifluoroacetate)]?
Answer: activity at 5 µM (2a HCV RNA replicon): 58%; activity at 10 µM (2a HCV RNA replicon): 16%; Cell Viability (%), alamar blue (Huh7.5 cells; 5 μM): 94%; Cell Viability (%), alamar blue (Huh7.5 cells; 10 μM): 67%

Question: What does the source list for `COC(=O)c1cccc(NC(=O)c2nc(Cl)c(N(C)CC(C)C)nc2N)c1.O=C(O)C(F)(F)F` [ID 343, methyl 3-(3-amino-6-chloro-5-(isobutyl(methyl)amino)pyrazine-2-carboxamido)benzoate 2,2,2-trifluoroacetate]?
Answer: activity at 5 µM (2a HCV RNA replicon): 65%; activity at 10 µM (2a HCV RNA replicon): 38%; Cell Viability (%), alamar blue (Huh7.5 cells; 5 μM): 98%; Cell Viability (%), alamar blue (Huh7.5 cells; 10 μM): 93%

Question: With `CC(C)CN(C)c1nc(N)c(C(=O)NC2CCNCC2)nc1Cl.O=C(O)C(F)(F)F` [ID 319, 3-amino-6-chloro-5-(isobutyl(methyl)amino)-N-(piperidin-4-yl)pyrazine-2-carboxamide 2,2,2-trifluoroacetate] as the molecule, how does the activity at 5 µM (2a HCV RNA replicon) read?
Answer: 37%

Question: And the activity at 10 µM (2a HCV RNA replicon)?
Answer: 11%

Question: And the “Cell Viability (%), alamar blue” value (Huh7.5 cells; 5 μM)?
Answer: 87%

Question: And the “Cell Viability (%), alamar blue” value (Huh7.5 cells; 10 μM)?
Answer: 75%

Question: What about the pIC50 (HCV 1b RNA replicon) of the same molecule?
Answer: 5.16
